How the values were obtained:
Assay in all cases: relative viability (nuclei count vs DMSO), 5 days (fraction); higher = more cells survive
[1] = test system: 201T
Method in brief: (§1)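 Relative viability was taken as the ratio of nuclei in treated wells to nuclei in vehicle wells. Lung cancer cell lines in 1536-well plates received compounds by pin tool one day after seeding, either one drug alone or a fixed anchor-drug dose plus five library-drug doses (not always all listed) in √10 steps. Nuclei were counted on 4× images after 5 days of treatment, and values are medians of duplicate plates.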

[2] = test system: BEN
Method in brief: as §1

[3] = test system: CAL-12T
Method in brief: as §1

[4] = test system: HCC-827
Method in brief: as §1

[5] = test system: HOP-62
Method in brief: as §1

[6] = test system: LCLC-103H
Method in brief: as §1

[7] = test system: LCLC-97TM1
Method in brief: as §1

[8] = test system: LXF-289
Method in brief: as §1

[9] = test system: NCI-H1355
Method in brief: as §1

[10] = test system: NCI-H1395
Method in brief: as §1

[11] = test system: NCI-H1437
Method in brief: as §1

[12] = test system: NCI-H1650
Method in brief: as §1

[13] = test system: NCI-H1793
Method in brief: as §1

[14] = test system: NCI-H2023
Method in brief: as §1

[15] = test system: NCI-H2087
Method in brief: as §1

[16] = test system: NCI-H2228
Method in brief: as §1

[17] = test system: NCI-H2405
Method in brief: as §1

[18] = test system: NCI-H3122
Method in brief: as §1

[19] = test system: NCI-H322M
Method in brief: as §1

[20] = test system: NCI-H647
Method in brief: as §1

[21] = test system: NCI-H727
Method in brief: as §1

[22] = test system: RERF-LC-KJ
Method in brief: as §1

[23] = test system: SK-LU-1
Method in brief: as §1

Q: Which relative viability ([1]; first compound 0.04 µM) does the source give for `C[C@@H]1CN(CC(=O)Nc2ccc3c(c2)Cc2cccc(-c4cc(=O)cc(N5CCOCC5)o4)c2S3)C[C@H](C)O1` + COc1cc2c(Oc3ccc(NC(=O)C4(C(=O)Nc5ccc(F)cc5)CC4)cc3F)ccnc2cc1OCCCN1CCOCC1 [Foretinib] (partner 0.25 µM) here?
A: Its relative viability is 0.93.

Q: And the relative viability ([1]; first compound 0.1265 µM)?
A: The relative viability was 1.06.

Q: And the relative viability ([1]; first compound 4 µM)?
A: Its relative viability is 0.936.

Q: And the relative viability ([2]; first compound 0.04 µM)?
A: Its relative viability is 0.615.

Q: What about the relative viability ([2]; first compound 0.1265 µM) of the same molecule?
A: Its relative viability is 0.552.

Q: What about the relative viability ([2]; first compound 0.4 µM) of the same molecule?
A: The relative viability was 0.593.

Q: And the relative viability ([2]; first compound 4 µM)?
A: The relative viability was 0.623.

Q: What about the relative viability ([3]; first compound 0.04 µM) of the same molecule?
A: Its relative viability is 1.13.

Q: What about the relative viability ([3]; first compound 0.1265 µM) of the same molecule?
A: Its relative viability is 1.06.

Q: What about the relative viability ([3]; first compound 0.4 µM) of the same molecule?
A: The relative viability was 1.01.

Q: And the relative viability ([3]; first compound 4 µM)?
A: Its relative viability is 0.764.

Q: And the relative viability ([4]; first compound 0.04 µM)?
A: Its relative viability is 1.08.

Q: What about the relative viability ([4]; first compound 0.1265 µM) of the same molecule?
A: Its relative viability is 1.

Q: And the relative viability ([4]; first compound 0.4 µM)?
A: The relative viability was 1.08.

Q: What about the relative viability ([4]; first compound 4 µM) of the same molecule?
A: The relative viability was 0.939.

Q: And the relative viability ([5]; first compound 0.04 µM)?
A: The relative viability was 0.924.

Q: What about the relative viability ([5]; first compound 0.1265 µM) of the same molecule?
A: Its relative viability is 1.08.

Q: What about the relative viability ([5]; first compound 0.4 µM) of the same molecule?
A: The relative viability was 1.13.

Q: What about the relative viability ([5]; first compound 4 µM) of the same molecule?
A: Its relative viability is 0.9.

Q: And the relative viability ([6]; first compound 0.04 µM)?
A: The relative viability was 0.777.

Q: And the relative viability ([6]; first compound 0.1265 µM)?
A: The relative viability was 0.671.

Q: What about the relative viability ([6]; first compound 0.4 µM) of the same molecule?
A: Its relative viability is 0.671.

Q: And the relative viability ([6]; first compound 4 µM)?
A: Its relative viability is 0.608.

Q: What about the relative viability ([7]; first compound 0.04 µM) of the same molecule?
A: The relative viability was 0.902.

Q: And the relative viability ([7]; first compound 0.1265 µM)?
A: The relative viability was 0.862.

Q: And the relative viability ([7]; first compound 0.4 µM)?
A: The relative viability was 0.959.

Q: What about the relative viability ([7]; first compound 4 µM) of the same molecule?
A: The relative viability was 0.969.

Q: What about the relative viability ([8]; first compound 0.04 µM) of the same molecule?
A: Its relative viability is 0.993.

Q: What about the relative viability ([8]; first compound 0.1265 µM) of the same molecule?
A: Its relative viability is 1.01.

Q: What about the relative viability ([8]; first compound 0.4 µM) of the same molecule?
A: The relative viability was 0.985.

Q: And the relative viability ([8]; first compound 4 µM)?
A: Its relative viability is 0.936.

Q: And the relative viability ([9]; first compound 0.04 µM)?
A: The relative viability was 0.95.

Q: What about the relative viability ([9]; first compound 0.1265 µM) of the same molecule?
A: Its relative viability is 0.964.

Q: What about the relative viability ([9]; first compound 0.4 µM) of the same molecule?
A: Its relative viability is 0.951.

Q: And the relative viability ([9]; first compound 4 µM)?
A: The relative viability was 0.858.

Q: And the relative viability ([10]; first compound 0.04 µM)?
A: The relative viability was 1.06.

Q: And the relative viability ([10]; first compound 0.1265 µM)?
A: The relative viability was 1.07.

Q: What about the relative viability ([10]; first compound 0.4 µM) of the same molecule?
A: Its relative viability is 0.982.

Q: What about the relative viability ([10]; first compound 4 µM) of the same molecule?
A: Its relative viability is 0.866.

Q: And the relative viability ([11]; first compound 0.04 µM)?
A: Its relative viability is 1.25.

Q: What about the relative viability ([11]; first compound 0.1265 µM) of the same molecule?
A: The relative viability was 1.26.

Q: And the relative viability ([11]; first compound 0.4 µM)?
A: The relative viability was 1.29.

Q: And the relative viability ([11]; first compound 4 µM)?
A: Its relative viability is 0.957.

Q: What about the relative viability ([12]; first compound 0.04 µM) of the same molecule?
A: Its relative viability is 1.07.

Q: And the relative viability ([12]; first compound 0.1265 µM)?
A: Its relative viability is 1.14.

Q: And the relative viability ([12]; first compound 0.4 µM)?
A: The relative viability was 1.04.

Q: And the relative viability ([12]; first compound 4 µM)?
A: The relative viability was 0.678.

Q: What about the relative viability ([13]; first compound 0.04 µM) of the same molecule?
A: Its relative viability is 0.556.

Q: And the relative viability ([13]; first compound 0.1265 µM)?
A: The relative viability was 0.72.

Q: And the relative viability ([13]; first compound 0.4 µM)?
A: The relative viability was 0.809.

Q: What about the relative viability ([13]; first compound 4 µM) of the same molecule?
A: Its relative viability is 0.476.

Q: What about the relative viability ([14]; first compound 0.04 µM) of the same molecule?
A: Its relative viability is 0.732.

Q: What about the relative viability ([14]; first compound 0.1265 µM) of the same molecule?
A: The relative viability was 0.915.

Q: What about the relative viability ([14]; first compound 0.4 µM) of the same molecule?
A: The relative viability was 0.731.

Q: What about the relative viability ([14]; first compound 4 µM) of the same molecule?
A: The relative viability was 0.666.

Q: And the relative viability ([15]; first compound 0.04 µM)?
A: The relative viability was 1.15.

Q: And the relative viability ([15]; first compound 0.1265 µM)?
A: Its relative viability is 0.954.

Q: What about the relative viability ([15]; first compound 0.4 µM) of the same molecule?
A: Its relative viability is 1.05.

Q: And the relative viability ([15]; first compound 4 µM)?
A: The relative viability was 0.801.

Q: And the relative viability ([16]; first compound 0.04 µM)?
A: Its relative viability is 0.82.

Q: What about the relative viability ([16]; first compound 0.1265 µM) of the same molecule?
A: The relative viability was 0.689.

Q: And the relative viability ([16]; first compound 0.4 µM)?
A: Its relative viability is 0.726.

Q: And the relative viability ([16]; first compound 4 µM)?
A: The relative viability was 0.816.

Q: What about the relative viability ([17]; first compound 0.04 µM) of the same molecule?
A: Its relative viability is 1.02.

Q: What about the relative viability ([17]; first compound 0.1265 µM) of the same molecule?
A: The relative viability was 1.08.

Q: What about the relative viability ([17]; first compound 0.4 µM) of the same molecule?
A: The relative viability was 1.03.

Q: What about the relative viability ([17]; first compound 4 µM) of the same molecule?
A: The relative viability was 1.03.

Q: What about the relative viability ([18]; first compound 0.04 µM) of the same molecule?
A: The relative viability was 1.03.

Q: What about the relative viability ([18]; first compound 0.1265 µM) of the same molecule?
A: Its relative viability is 0.902.

Q: What about the relative viability ([18]; first compound 0.4 µM) of the same molecule?
A: The relative viability was 0.961.

Q: What about the relative viability ([18]; first compound 4 µM) of the same molecule?
A: Its relative viability is 0.914.

Q: And the relative viability ([19]; first compound 0.04 µM)?
A: The relative viability was 0.508.

Q: And the relative viability ([19]; first compound 0.1265 µM)?
A: The relative viability was 0.965.

Q: What about the relative viability ([19]; first compound 0.4 µM) of the same molecule?
A: The relative viability was 0.979.

Q: What about the relative viability ([19]; first compound 4 µM) of the same molecule?
A: Its relative viability is 0.874.

Q: And the relative viability ([20]; first compound 0.04 µM)?
A: Its relative viability is 1.34.

Q: What about the relative viability ([20]; first compound 0.1265 µM) of the same molecule?
A: The relative viability was 1.17.

Q: What about the relative viability ([20]; first compound 0.4 µM) of the same molecule?
A: The relative viability was 1.2.

Q: What about the relative viability ([20]; first compound 4 µM) of the same molecule?
A: Its relative viability is 0.793.

Q: And the relative viability ([21]; first compound 0.04 µM)?
A: Its relative viability is 0.98.

Q: What about the relative viability ([21]; first compound 0.1265 µM) of the same molecule?
A: The relative viability was 0.783.

Q: What about the relative viability ([21]; first compound 0.4 µM) of the same molecule?
A: The relative viability was 0.826.

Q: And the relative viability ([21]; first compound 4 µM)?
A: The relative viability was 1.

Q: What about the relative viability ([22]; first compound 0.04 µM) of the same molecule?
A: Its relative viability is 0.826.

Q: And the relative viability ([22]; first compound 0.1265 µM)?
A: The relative viability was 0.88.

Q: What about the relative viability ([22]; first compound 0.4 µM) of the same molecule?
A: Its relative viability is 0.827.

Q: What about the relative viability ([22]; first compound 4 µM) of the same molecule?
A: The relative viability was 0.871.

Q: And the relative viability ([23]; first compound 0.04 µM)?
A: The relative viability was 0.813.

Q: And the relative viability ([23]; first compound 0.1265 µM)?
A: Its relative viability is 0.831.

Q: What about the relative viability ([23]; first compound 0.4 µM) of the same molecule?
A: The relative viability was 0.859.

Q: And the relative viability ([23]; first compound 4 µM)?
A: The relative viability was 0.565.
